The source of these data is ChEMBL document CHEMBL2040823, “A novel class of small-molecule caspase-3 inhibitors prepared by multicomponent reactions” (Eur J Med Chem, 2012).

Some results are limits rather than exact numbers.

The first series addresses T1, Caspase-3 (Homo sapiens, UniProt P42574).
T1 sequence (P42574 whole entry): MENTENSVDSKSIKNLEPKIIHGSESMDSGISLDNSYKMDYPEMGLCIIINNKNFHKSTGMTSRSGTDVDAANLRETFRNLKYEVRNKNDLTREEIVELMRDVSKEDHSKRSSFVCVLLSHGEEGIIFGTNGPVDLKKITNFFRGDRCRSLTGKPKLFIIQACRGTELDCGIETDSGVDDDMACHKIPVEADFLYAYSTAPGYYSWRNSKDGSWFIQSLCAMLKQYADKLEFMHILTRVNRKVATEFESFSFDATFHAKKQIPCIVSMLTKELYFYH
Kind of series: Inhibition of human recombinant caspase-3 catalytic domain using Ac-DEVD-pNA as substrate preincubated for 30 mins before substrate addition measured after 3 mins.
By IC50 is commonly meant the concentration at which inhibition is half-maximal. As for `CCCNC1=C(C(=O)OC)CN(c2ccccc2)C1=O`, the concentration for half-maximal inhibition (IC50) was more than 45 µM.

On to `CCOC(=O)C1=C(Nc2ccccc2)C(=O)N(c2ccccc2)C1`, for which the IC50 is more than 45 µM. As for `CCOC(=O)C1=C(Nc2ccc(F)cc2)C(=O)N(c2ccc(F)cc2)C1`, the half-inhibitory concentration (IC50) is more than 45 µM. For `CCOC(=O)C1=C(NC2CCCCC2)C(=O)N(C2CCCCC2)C1`, the 50% inhibitory concentration (IC50) is more than 45 µM. Regarding `CCCN1C(=O)C(Nc2ccc(Br)cc2)=C(C(=O)OCC)C1c1ccccc1` (centres undefined), the IC50 is more than 45 µM.

Tested on in the next series: not listed separately
In words: Octanol-water partition coefficient, log P of the compound by Shake-flask method. In kind it is physicochemical.
The logP is the decadic logarithm of the partition coefficient of the neutral form, usually between octanol and water. A low value points to a more hydrophilic compound. `CCOC(=O)C1=C(Nc2ccc(Br)cc2)C(=O)N(c2ccc(Br)cc2)C1` returned a logP of 1.75.

`CCOC(=O)C1=C(NC2CCCCC2)C(=O)N(c2ccc(Br)cc2)C1`: the lipophilicity (logP) turned out to be 1.8. `CCOC(=O)C1=C(Nc2ccc(Br)cc2)C(=O)N(C2CCCCC2)C1c1ccccc1` (centres undefined) came in with a lipophilicity (logP) of 2.25.

As to `CCOC(=O)C1=C(Nc2cccc3ccccc23)C(=O)N(C2CCCCC2)C1c1ccccc1` (centres undefined), the logP was determined as 2.
